Source: PubChem BioAssay AID1963835 (Molecular Pharmacology Branch, DTP, NCI, 2024)

System: 699152-130-R-J1-PDC complex spheroid viability
Assay: Anticancer human tumor 699152-130-R-J1-PDC patient-derived pancreatic carcinoma cell line growth inhibition [POLQ]
Settings: for IC50: curve of first compound; for viability, T/C: stronger effect = lower value
How it was run: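 Patient-derived tumour cells were co-cultured with HUVEC and mesenchymal stem cells as multicellular spheroids at 37 °C. They were treated with POLQ inhibitors (novobiocin, ART-558, RP6685) alone or combined with other agents. Top concentrations were at or near clinical Cmax (otherwise 10 microM; SN-38 at 1 microM), decreasing in half-log steps.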

[1] = second compound 0.0316 µM, first compound 0.0316 µM
[2] = second compound 0.0316 µM, first compound 0.1 µM
[3] = second compound 0.0316 µM, first compound 0.316 µM
[4] = second compound 0.0316 µM, first compound 1 µM
[5] = second compound 0.1 µM, first compound 0.0316 µM
[6] = second compound 0.1 µM, first compound 0.1 µM
[7] = second compound 0.1 µM, first compound 0.316 µM
[8] = second compound 0.1 µM, first compound 1 µM
[9] = second compound 0.316 µM, first compound 0.0316 µM
[10] = second compound 0.316 µM, first compound 0.1 µM
[11] = second compound 0.316 µM, first compound 0.316 µM
[12] = second compound 0.316 µM, first compound 1 µM
[13] = second compound 1 µM, first compound 0.0316 µM
[14] = second compound 1 µM, first compound 0.1 µM
[15] = second compound 1 µM, first compound 0.316 µM
[16] = second compound 1 µM, first compound 1 µM
[17] = second compound 3.16 µM, first compound 0.0316 µM
[18] = second compound 3.16 µM, first compound 0.1 µM
[19] = second compound 3.16 µM, first compound 0.316 µM
[20] = second compound 3.16 µM, first compound 1 µM
[21] = second compound 10 µM, first compound 0.0316 µM
[22] = second compound 10 µM, first compound 0.1 µM
[23] = second compound 10 µM, first compound 0.316 µM
[24] = second compound 10 µM, first compound 1 µM
[25] = second compound 0.0316 µM, first compound 3.16 µM
[26] = second compound 0.0316 µM, first compound 10 µM
[27] = second compound 0.1 µM, first compound 3.16 µM
[28] = second compound 0.1 µM, first compound 10 µM
[29] = second compound 0.316 µM, first compound 3.16 µM
[30] = second compound 0.316 µM, first compound 10 µM
[31] = second compound 1 µM, first compound 3.16 µM
[32] = second compound 1 µM, first compound 10 µM
[33] = second compound 3.16 µM, first compound 3.16 µM
[34] = second compound 3.16 µM, first compound 10 µM
[35] = second compound 10 µM, first compound 3.16 µM
[36] = second compound 10 µM, first compound 10 µM
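Also: spheroids exposed to agents for 7 days before viability reading.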
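For viability, T/C in this document: percent of DMSO vehicle control viability so 100% = vehicle and 0% = no viable signal.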

Work on `C=CCn1c(=O)c2cnc(Nc3ccc(N4CCN(C)CC4)cc3)nc2n1-c1cccc(C(C)(C)O)n1` + Nc1ccc(C#CCN(C(=O)Cc2ncc(C(F)(F)F)cc2C(F)(F)F)c2ccc(F)cc2)nn1 yielded an IC50 (second compound 0.0316 µM) greater than 1000 nM, an IC50 (second compound 0.1 µM) greater than 1000 nM and an IC50 (second compound 0.316 µM) greater than 1000 nM. For the same compound, the IC50 (second compound 1 µM) was greater than 1000 nM, the IC50 (second compound 3.16 µM) was greater than 1000 nM and the IC50 (second compound 10 µM) was greater than 1000 nM. It also gave a viability, T/C (second compound 0.0316 µM, first compound 0.00316 µM) of 94.2%, a viability, T/C (second compound 0.0316 µM, first compound 0.01 µM) of 100% and a viability, T/C [1] of 103%. It also gave a viability, T/C [2] of 93.2%, a viability, T/C [3] of 96.1% and a viability, T/C [4] of 78.2%. The viability, T/C (second compound 0.1 µM, first compound 0.00316 µM) was 105%, the viability, T/C (second compound 0.1 µM, first compound 0.01 µM) was 98% and the viability, T/C [5] was 98.1%. It also gave a viability, T/C [6] of 99.1%, a viability, T/C [7] of 89% and a viability, T/C [8] of 68.8%. It also gave a viability, T/C (second compound 0.316 µM, first compound 0.00316 µM) of 104%, a viability, T/C (second compound 0.316 µM, first compound 0.01 µM) of 113% and a viability, T/C [9] of 108%. The viability, T/C [10] was 106%, the viability, T/C [11] was 91% and the viability, T/C [12] was 71.9%. The viability, T/C (second compound 1 µM, first compound 0.00316 µM) was 97.9%, the viability, T/C (second compound 1 µM, first compound 0.01 µM) was 94.7% and the viability, T/C [13] was 98.5%. It also gave a viability, T/C [14] of 105%, a viability, T/C [15] of 87.3% and a viability, T/C [16] of 74.7%. The viability, T/C (second compound 3.16 µM, first compound 0.00316 µM) was 107%, the viability, T/C (second compound 3.16 µM, first compound 0.01 µM) was 115% and the viability, T/C [17] was 100%. For the same compound, the viability, T/C [18] was 112%, the viability, T/C [19] was 101% and the viability, T/C [20] was 82.8%. The viability, T/C (second compound 10 µM, first compound 0.00316 µM) was 122%, the viability, T/C (second compound 10 µM, first compound 0.01 µM) was 126% and the viability, T/C [21] was 109%. The viability, T/C [22] was 104%, the viability, T/C [23] was 104% and the viability, T/C [24] was 81.7%.

With `CCc1cc2c(N3CCc4c(cc(Cn5ccnc5)cc4-c4cn(C)nc4C(F)(F)F)C3=O)ccnc2c(OC)n1` + Cc1cccc(N(C)C(=O)C2C(O)CCN2c2nc(C)cc(C(F)(F)F)c2C#N)c1 the IC50 (second compound 0.0316 µM) was greater than 10000 nM, the IC50 (second compound 0.1 µM) was greater than 10000 nM and the IC50 (second compound 0.316 µM) was greater than 10000 nM. For the same compound, the IC50 (second compound 1 µM) was greater than 10000 nM, the IC50 (second compound 3.16 µM) was greater than 10000 nM and the IC50 (second compound 10 µM) was greater than 10000 nM. For the same compound, the viability, T/C [1] was 80%, the viability, T/C [2] was 90.4% and the viability, T/C [3] was 105%. For the same compound, the viability, T/C [4] was 114%, the viability, T/C [25] was 103% and the viability, T/C [26] was 95%. The viability, T/C [5] was 75.8%, the viability, T/C [6] was 89.3% and the viability, T/C [7] was 88.1%. The viability, T/C [8] was 94.2%, the viability, T/C [27] was 97.3% and the viability, T/C [28] was 94.9%. The viability, T/C [9] was 86.7%, the viability, T/C [10] was 101% and the viability, T/C [11] was 91.5%. The viability, T/C [12] was 102%, the viability, T/C [29] was 103% and the viability, T/C [30] was 93.6%. The viability, T/C [13] was 101%, the viability, T/C [14] was 93% and the viability, T/C [15] was 98.7%. For the same compound, the viability, T/C [16] was 86.8%, the viability, T/C [31] was 105% and the viability, T/C [32] was 91.7%. The viability, T/C [17] was 99.2%, the viability, T/C [18] was 94.5% and the viability, T/C [19] was 98.4%. The viability, T/C [20] was 95.1%, the viability, T/C [33] was 90.9% and the viability, T/C [34] was 99.8%. For the same compound, the viability, T/C [21] was 85.6%, the viability, T/C [22] was 93.1% and the viability, T/C [23] was 92.5%. It also gave a viability, T/C [24] of 94.7%, a viability, T/C [35] of 95.1% and a viability, T/C [36] of 95.5%.

`COc1cccc2c1C(=O)c1c(O)c3c(c(O)c1C2=O)CC(O)(C(=O)CO)CC3OC1CC(N)C(O)C(C)O1` (stereo unspecified) + Cc1cccc(N(C)C(=O)C2C(O)CCN2c2nc(C)cc(C(F)(F)F)c2C#N)c1 gave an IC50 (second compound 0.0316 µM) of 222 nM, an IC50 (second compound 0.1 µM) of 244 nM and an IC50 (second compound 0.316 µM) of 279 nM. It also gave an IC50 (second compound 1 µM) of 276 nM, an IC50 (second compound 3.16 µM) of 275 nM and an IC50 (second compound 10 µM) of 257 nM. The viability, T/C [1] was 102%, the viability, T/C [2] was 59% and the viability, T/C [3] was 47.5%. It also gave a viability, T/C [4] of 34%, a viability, T/C [25] of 3.59% and a viability, T/C [26] of 10.4%. For the same compound, the viability, T/C [5] was 81.1%, the viability, T/C [6] was 61.3% and the viability, T/C [7] was 47%. The viability, T/C [8] was 31.3%, the viability, T/C [27] was 3.36% and the viability, T/C [28] was 8.95%. It also gave a viability, T/C [9] of 85.7%, a viability, T/C [10] of 66% and a viability, T/C [11] of 49.5%. The viability, T/C [12] was 29.6%, the viability, T/C [29] was 3.68% and the viability, T/C [30] was 10.9%. The viability, T/C [13] was 81.9%, the viability, T/C [14] was 68.5% and the viability, T/C [15] was 46.8%. The viability, T/C [16] was 28.7%, the viability, T/C [31] was 4.78% and the viability, T/C [32] was 12.1%. For the same compound, the viability, T/C [17] was 85%, the viability, T/C [18] was 60.7% and the viability, T/C [19] was 55.2%. It also gave a viability, T/C [20] of 20%, a viability, T/C [33] of 6.82% and a viability, T/C [34] of 10.3%. For the same compound, the viability, T/C [21] was 84.4%, the viability, T/C [22] was 60.2% and the viability, T/C [23] was 53.2%. For the same compound, the viability, T/C [24] was 12%, the viability, T/C [35] was 7.55% and the viability, T/C [36] was 10.8%.
